Source: ChEMBL document CHEMBL1201862, “PubChem BioAssay data set” (2004)
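A five-concentration, 48-hour dose response in 96-well plates underlies each endpoint, interpolated linearly between surrounding concentrations. GI50 marks 50% less growth.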 Calls of active or inactive are those of the source. Rule as the data show it: active = GI50 up to about 1.1 µM and inactive = higher.

Legend:
Assay in all cases: growth of human tumour cells (NCI), 48 h
HCT-116 = system: HCT-116
OVCAR-8 = system: OVCAR-8
SR = system: SR
CCRF-CEM = system: CCRF-CEM
CAKI-1 = system: CAKI-1
M14 = system: M14
NCI-H522 = system: NCI-H522
PC-3 = system: PC-3
SF-295 = system: SF-295
UACC-62 = system: UACC-62
HL-60 = system: HL-60
HOP-62 = system: HOP-62
SK-OV-3 = system: SK-OV-3
K562 = system: K562
DU-145 = system: DU-145
IGROV-1 = system: IGROV-1
LOX IMVI = system: LOX IMVI
NCI/ADR-RES = system: NCI/ADR-RES
KM12 = system: KM12
MOLT-4 = system: MOLT-4
Malme-3M = system: Malme-3M
SNB-19 = system: SNB-19
SNB-75 = system: SNB-75
T47D = system: T47D
MCF7 = system: MCF7
OVCAR-4 = system: OVCAR-4
SK-MEL-5 = system: SK-MEL-5
HOP-92 = system: HOP-92
TK-10 = system: TK-10
SN12C = system: SN12C
OVCAR-5 = system: OVCAR-5
ACHN = system: ACHN
BT-549 = system: BT-549
786-0 = system: 786-0
UACC-257 = system: UACC-257
UO-31 = system: UO-31
SK-MEL-28 = system: SK-MEL-28
RPMI-8226 = system: RPMI-8226
SK-MEL-2 = system: SK-MEL-2
MDA-MB-435 = system: MDA-MB-435
HCC 2998 = system: HCC 2998
MDA-MB-231 = system: MDA-MB-231
SF-268 = system: SF-268
SW-620 = system: SW-620
NCI-H460 = system: NCI-H460
EKVX = system: EKVX
SF-539 = system: SF-539
NCI-H23 = system: NCI-H23
A549 = system: A549
Hs-578T = system: Hs-578T
COLO 205 = system: COLO 205
U-251 = system: U-251
OVCAR-3 = system: OVCAR-3
MDA-N = system: MDA-N
HT-29 = system: HT-29
NCI-H226 = system: NCI-H226
HCT-15 = system: HCT-15
RXF 393 = system: RXF 393

## O=C1CCCC/C1=C\c1ccc(Br)cc1
HCT-116
  GI50: 17.3 µM (inactive)
OVCAR-8
  GI50: 15.7 µM (inactive)
SR
  GI50: 4.2 µM (inactive)
CCRF-CEM
  GI50: 12.6 µM (inactive)
CAKI-1
  GI50: 17 µM (inactive)
M14
  GI50: 12.4 µM (inactive)
NCI-H522
  GI50: 14.8 µM (inactive)
PC-3
  GI50: 97.7 µM (inactive)
SF-295
  GI50: 21.1 µM (inactive)
UACC-62
  GI50: 6.61 µM (inactive)
HL-60
  GI50: 2.4 µM (inactive)
HOP-62
  GI50: 20.7 µM (inactive)
SK-OV-3
  GI50: 24.8 µM (inactive)
K562
  GI50: 4.33 µM (inactive)
DU-145
  GI50: 40 µM (inactive)
IGROV-1
  GI50: 19.7 µM (inactive)
LOX IMVI
  GI50: 39.6 µM (inactive)
NCI/ADR-RES
  GI50: 3.73 µM (inactive)
KM12
  GI50: 2.42 µM (inactive)
MOLT-4
  GI50: 2.14 µM (inactive)
Malme-3M
  GI50: 7.73 µM (inactive)
SNB-19
  GI50: 3.69 µM (inactive)
SNB-75
  GI50: 16 µM (inactive)
T47D
  GI50: 23.3 µM (inactive)
MCF7
  GI50: 2.71 µM (inactive)
OVCAR-4
  GI50: 22 µM (inactive)
SK-MEL-5
  GI50: 22.7 µM (inactive)
HOP-92
  GI50: 17.1 µM (inactive)
TK-10
  GI50: 16.7 µM (inactive)
SN12C
  GI50: 17.6 µM (inactive)
OVCAR-5
  GI50: > 10 µM (inactive)
ACHN
  GI50: 2.75 µM (inactive)
BT-549
  GI50: 14.5 µM (inactive)
786-0
  GI50: 16.6 µM (inactive)
UACC-257
  GI50: 26.8 µM (inactive)
UO-31
  GI50: 16.1 µM (inactive)
SK-MEL-28
  GI50: 13.7 µM (inactive)
RPMI-8226
  GI50: 15.7 µM (inactive)
SK-MEL-2
  GI50: 22.6 µM (inactive)
MDA-MB-435
  GI50: 15.8 µM (inactive)
HCC 2998
  GI50: 23.2 µM (inactive)
MDA-MB-231
  GI50: 16.8 µM (inactive)
SF-268
  GI50: 18.5 µM (inactive)
SW-620
  GI50: > 100 µM (inactive)
NCI-H460
  GI50: 35.5 µM (inactive)
EKVX
  GI50: 24.8 µM (inactive)
SF-539
  GI50: 19.9 µM (inactive)
NCI-H23
  GI50: 16.2 µM (inactive)
A549
  GI50: 22.4 µM (inactive)
Hs-578T
  GI50: 24.5 µM (inactive)
COLO 205
  GI50: 17.6 µM (inactive)
U-251
  GI50: 2.99 µM (inactive)
OVCAR-3
  GI50: 20.7 µM (inactive)
MDA-N
  GI50: 16.3 µM (inactive)

## CCCN(CCC)C(=S)Sc1nc(C)nc(N2CCN(c3nc(C)nc(SC(=S)N(CCC)CCC)c3[N+](=O)[O-])CC2)c1[N+](=O)[O-]
HCT-116
  GI50: 2.03 µM (inactive)
OVCAR-8
  GI50: 5.5 µM (inactive)
SR
  GI50: 1.07 µM (active)
CCRF-CEM
  GI50: 0.628 µM (active)
CAKI-1
  GI50: 9.16 µM (inactive)
M14
  GI50: 15.2 µM (inactive)
NCI-H522
  GI50: 0.316 µM (active)
PC-3
  GI50: 15.2 µM (inactive)
HT-29
  GI50: 2.07 µM (inactive)
SF-295
  GI50: 24.9 µM (inactive)
UACC-62
  GI50: 7.94 µM (inactive)
HL-60
  GI50: 3.1 µM (inactive)
HOP-62
  GI50: 29.4 µM (inactive)
SK-OV-3
  GI50: 56.4 µM (inactive)
K562
  GI50: 1.11 µM (active)
DU-145
  GI50: 26.8 µM (inactive)
IGROV-1
  GI50: 11.4 µM (inactive)
LOX IMVI
  GI50: 0.421 µM (active)
NCI/ADR-RES
  GI50: 41.5 µM (inactive)
KM12
  GI50: 14.2 µM (inactive)
MOLT-4
  GI50: 3.23 µM (inactive)
Malme-3M
  GI50: 18.8 µM (inactive)
SNB-19
  GI50: 22.6 µM (inactive)
SNB-75
  GI50: 27.5 µM (inactive)
NCI-H226
  GI50: 21.8 µM (inactive)
T47D
  GI50: 8.2 µM (inactive)
MCF7
  GI50: 0.248 µM (active)
OVCAR-4
  GI50: 17.3 µM (inactive)
SK-MEL-5
  GI50: 3.16 µM (inactive)
HOP-92
  GI50: 15.8 µM (inactive)
TK-10
  GI50: 20.1 µM (inactive)
SN12C
  GI50: 8.77 µM (inactive)
OVCAR-5
  GI50: 23.4 µM (inactive)
ACHN
  GI50: 13.9 µM (inactive)
BT-549
  GI50: 5.2 µM (inactive)
786-0
  GI50: 3.62 µM (inactive)
HCT-15
  GI50: 9.4 µM
RXF 393
  GI50: 4.19 µM (inactive)
UACC-257
  GI50: 15.6 µM (inactive)
UO-31
  GI50: 17.9 µM (inactive)
SK-MEL-28
  GI50: 15.3 µM (inactive)
RPMI-8226
  GI50: 0.386 µM (active)
SK-MEL-2
  GI50: 7.16 µM (inactive)
MDA-MB-435
  GI50: 4.82 µM (inactive)
HCC 2998
  GI50: 16.5 µM (inactive)
MDA-MB-231
  GI50: 7.69 µM (inactive)
SF-268
  GI50: 18.8 µM (inactive)
SW-620
  GI50: 3.53 µM (inactive)
NCI-H460
  GI50: 23.9 µM (inactive)
EKVX
  GI50: 30.5 µM (inactive)
SF-539
  GI50: 26.8 µM (inactive)
NCI-H23
  GI50: 12.4 µM (inactive)
A549
  GI50: 20.7 µM (inactive)
Hs-578T
  GI50: > 63.7 µM (inactive)
COLO 205
  GI50: 0.262 µM (active)
U-251
  GI50: 6.5 µM (inactive)
MDA-N
  GI50: 8.45 µM (inactive)

## Oc1ccc2c3c1OC1c4[nH]ncc4C[C@H]4[C@@H](C2)N(CC2CC2)CC[C@]314 (some centres not stated)
HCT-116
  GI50: > 100 µM (inactive)
OVCAR-8
  GI50: > 100 µM (inactive)
SR
  GI50: > 100 µM (inactive)
CCRF-CEM
  GI50: > 100 µM (inactive)
CAKI-1
  GI50: > 100 µM (inactive)
M14
  GI50: > 100 µM (inactive)
NCI-H522
  GI50: > 100 µM (inactive)
PC-3
  GI50: > 100 µM (inactive)
HT-29
  GI50: > 100 µM (inactive)
SF-295
  GI50: > 100 µM (inactive)
UACC-62
  GI50: > 100 µM (inactive)
HL-60
  GI50: > 100 µM (inactive)
HOP-62
  GI50: > 100 µM (inactive)
SK-OV-3
  GI50: > 100 µM (inactive)
K562
  GI50: 99.5 µM (inactive)
DU-145
  GI50: > 100 µM (inactive)
IGROV-1
  GI50: > 100 µM (inactive)
LOX IMVI
  GI50: > 100 µM (inactive)
NCI/ADR-RES
  GI50: > 100 µM (inactive)
KM12
  GI50: > 100 µM (inactive)
MOLT-4
  GI50: > 100 µM (inactive)
Malme-3M
  GI50: > 100 µM (inactive)
SNB-19
  GI50: > 100 µM (inactive)
SNB-75
  GI50: 78.5 µM (inactive)
NCI-H226
  GI50: > 100 µM (inactive)
T47D
  GI50: > 100 µM (inactive)
MCF7
  GI50: > 100 µM (inactive)
OVCAR-4
  GI50: > 100 µM (inactive)
SK-MEL-5
  GI50: > 100 µM (inactive)
HOP-92
  GI50: > 100 µM (inactive)
TK-10
  GI50: > 100 µM (inactive)
SN12C
  GI50: > 100 µM (inactive)
OVCAR-5
  GI50: > 100 µM (inactive)
ACHN
  GI50: > 100 µM (inactive)
BT-549
  GI50: > 100 µM (inactive)
786-0
  GI50: > 100 µM (inactive)
HCT-15
  GI50: > 100 µM
RXF 393
  GI50: > 100 µM (inactive)
UACC-257
  GI50: > 100 µM (inactive)
UO-31
  GI50: > 100 µM (inactive)
SK-MEL-28
  GI50: > 100 µM (inactive)
RPMI-8226
  GI50: > 100 µM (inactive)
SK-MEL-2
  GI50: > 100 µM (inactive)
MDA-MB-435
  GI50: > 100 µM (inactive)
HCC 2998
  GI50: > 100 µM (inactive)
MDA-MB-231
  GI50: > 100 µM (inactive)
SF-268
  GI50: > 100 µM (inactive)
NCI-H460
  GI50: > 100 µM (inactive)
EKVX
  GI50: > 100 µM (inactive)
NCI-H23
  GI50: > 100 µM (inactive)
A549
  GI50: > 100 µM (inactive)
Hs-578T
  GI50: > 100 µM (inactive)
COLO 205
  GI50: > 100 µM (inactive)
U-251
  GI50: > 100 µM (inactive)
OVCAR-3
  GI50: > 100 µM (inactive)
MDA-N
  GI50: > 100 µM (inactive)
